By EC50 is commonly meant the concentration at which the effect is half-maximal. Broadly, the Emax is the greatest response seen or fitted, relative to the assay's reference.

Assay [1] concerns the target Trace amine-associated receptor 1 (Rattus norvegicus, UniProt Q923Y9). In words: Agonist activity at rat TAAR1 expressed in recombinant HEK293 cells assessed as cAMP accumulation after 30 mins by luminometer. The format is functional, cell-based. A general note: Cyclic AMP is a second messenger, typically raised through Gs and lowered through Gi signalling.
Another assay deals with HEK293. The experiment in a line: Selectivity ratio of EC50 for human adrenergic alpha 2A receptor expressed in CHL cells to EC50 for human TAAR1 expressed in recombinant HEK293 cells. The format is cell-based.
For assay [2], the target named is T1, Trace amine-associated receptor 1 (Homo sapiens, UniProt Q96RJ0).
T1 sequence (Q96RJ0 whole entry): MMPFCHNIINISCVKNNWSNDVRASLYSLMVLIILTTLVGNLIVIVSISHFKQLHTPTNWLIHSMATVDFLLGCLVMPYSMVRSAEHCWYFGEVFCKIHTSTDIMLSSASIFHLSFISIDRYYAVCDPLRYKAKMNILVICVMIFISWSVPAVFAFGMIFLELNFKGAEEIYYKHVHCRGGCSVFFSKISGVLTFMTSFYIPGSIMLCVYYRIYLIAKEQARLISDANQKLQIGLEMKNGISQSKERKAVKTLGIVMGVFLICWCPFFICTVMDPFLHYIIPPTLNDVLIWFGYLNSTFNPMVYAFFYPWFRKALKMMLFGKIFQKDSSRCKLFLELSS
In words: Agonist activity at human TAAR1 expressed in recombinant HEK293 cells assessed as cAMP accumulation after 30 mins by luminometer. The format is functional, cell-based.

For assay [3], the target named is T2, Trace amine-associated receptor 1 (Homo sapiens) (UniProt Q96RJ0).
T2 sequence (whole entry): T1 sequence (Q96RJ0 whole entry)
In words: Agonist activity at human TAAR1 expressed in recombinant HEK293 cells assessed as cAMP accumulation after 30 mins by luminometer relative to phenethylamine. It is filed as functional, cell-based.

The target of assay [4] is Trace amine-associated receptor 1 (Mus musculus, UniProt Q923Y8). In words: Agonist activity at mouse TAAR1 expressed in recombinant HEK293 cells assessed as cAMP accumulation after 30 mins by luminometer. It is filed as functional, cell-based.
Chain of Trace amine-associated receptor 1 (Mus musculus, UniProt Q923Y8) (Q923Y8 whole entry): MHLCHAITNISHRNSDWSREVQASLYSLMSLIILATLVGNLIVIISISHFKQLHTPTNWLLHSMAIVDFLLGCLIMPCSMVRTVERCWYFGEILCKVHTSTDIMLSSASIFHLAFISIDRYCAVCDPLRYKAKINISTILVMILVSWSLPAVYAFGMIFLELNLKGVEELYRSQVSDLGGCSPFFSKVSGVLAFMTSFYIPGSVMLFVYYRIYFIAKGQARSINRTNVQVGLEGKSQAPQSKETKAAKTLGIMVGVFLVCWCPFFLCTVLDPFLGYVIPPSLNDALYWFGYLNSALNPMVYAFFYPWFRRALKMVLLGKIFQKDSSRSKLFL

Chain of Trace amine-associated receptor 1 (Rattus norvegicus, UniProt Q923Y9) (Q923Y9 whole entry): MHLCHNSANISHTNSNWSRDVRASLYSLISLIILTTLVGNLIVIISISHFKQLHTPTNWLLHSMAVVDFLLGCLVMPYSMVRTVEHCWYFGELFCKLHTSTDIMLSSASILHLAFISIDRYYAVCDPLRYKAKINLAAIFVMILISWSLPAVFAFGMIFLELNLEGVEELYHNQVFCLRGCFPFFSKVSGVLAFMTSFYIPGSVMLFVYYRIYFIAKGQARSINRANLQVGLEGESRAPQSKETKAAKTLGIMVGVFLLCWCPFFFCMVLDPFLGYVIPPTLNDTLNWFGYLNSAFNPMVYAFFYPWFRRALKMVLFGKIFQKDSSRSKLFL

Consider `CCN(C[C@H]1COC(N)=N1)c1ccccc1`, for which the EC50 was determined as 14 nM in assay [1], 59 nM in assay [2] and 3 nM in assay [4]. In the assay on HEK293, the Ratio EC50 amounted to 36. Besides, the Emax in assay [3] worked out at 87%.

Source of the values: ChEMBL document CHEMBL3779872 (ACS Med Chem Lett, 2016).
